# Measurements: PMC10161675, “Study on the absolute configuration and biological activity of rotenoids from the leaves and twigs of Millettia pyrrhocarpa Mattapha, Forest & Hawkins, sp. Nov” (BMC Complementary Medicine and Therapies, 2023)
# Legend:
# [1] = test system: E. coli O157: H7 DMST 12743; test: Antibacterial activity (MIC/MBC); type: cell-based; conditions: Escherichia coli; for MBC: read-out: Concentration of MBC; for MIC: read-out: Concentration of MIC
# Procedure: (§1) The study on in vitro antibacterial activity was carried out against nine strains (S. aureus ATCC 25923 DMST 8840, E. aerogenes ATCC13048 DMST 8841, E. coli O157: H7 DMST 12743, E. coli Enterotoxigenic, ETEC DMST 30543, E. coli Enteropathogenic, EPEC DMST 30546, S. typhimurium ATCC 13311 DMST 562, S. flexneri DMST 4423, P. mirabilis DMST 8212, and V. cholera nonO1/nonO139 DMST 2873).
# [2] = test system: V. cholera nonO1/nonO139 DMST 2873; test: Antibacterial activity (MIC/MBC); type: cell-based, V. cholerae; conditions: Vibrio cholerae; for MBC: read-out: Concentration of MBC; for MIC: read-out: Concentration of MIC
# Procedure: as §1
# P. mirabilis DMST 8212 = test: microbe, parasite or virus in culture; type: cell-based; conditions: Proteus mirabilis; for MBC: DMST8212, read-out: Concentration of MBC; for MIC: DMST8212, read-out: Concentration of MIC
# Procedure: as §1
# [3] = test system: E. coli Enteropathogenic, EPEC DMST 30546; test: microbe, parasite or virus in culture; type: cell-based; conditions: Escherichia coli; for MBC: read-out: Concentration of MBC
# Procedure: as §1
# [4] = test system: S. typhimurium ATCC 13311 DMST 562; test: microbe, parasite or virus in culture; type: cell-based; conditions: Salmonella enterica; for MBC: read-out: Concentration of MBC; for MIC: read-out: Concentration of MIC
# Procedure: as §1
# [5] = test system: E. aerogenes ATCC13048 DMST 8841; test: microbe, parasite or virus in culture; type: cell-based; conditions: Klebsiella aerogenes; for MBC: read-out: Concentration of MBC; for MIC: read-out: Concentration of MIC
# Procedure: as §1
# S. flexneri DMST 4423 = test: microbe, parasite or virus in culture; type: cell-based; conditions: Shigella flexneri; for MBC: DMST4423, read-out: Concentration of MBC; for MIC: DMST4423, read-out: Concentration of MIC
# Procedure: as §1
# [6] = test system: E. coli Enterotoxigenic, ETEC DMST 30543; test: microbe, parasite or virus in culture; type: cell-based; conditions: Escherichia coli; for MBC: read-out: Concentration of MBC
# Procedure: as §1
# [7] = test system: S. aureus ATCC 25923 DMST 8840; test: microbe, parasite or virus in culture; type: cell-based; conditions: Staphylococcus aureus; for MBC: ATCC25923, read-out: Concentration of MBC; for MIC: ATCC25923, read-out: Concentration of MIC
# Procedure: as §1
# [8] = test system: ΔTat/RevMC99 virus in 1A2 cells; test: Anti-syncytium (MC99 + 1A2) cell-based assay for anti-HIV-1; conditions: Human immunodeficiency virus 1, 1A2, read-out: Anti-syncytium (MC99+1A2) EC50
# Procedure: (§2) Anti-HIV1-RT assays of the crude extracts and isolated compounds were evaluated according to the standard methods described in previous literature. Cell-based assays for anti-HIV-1 RT of the crude extracts and isolated compounds were evaluated according to the standard methods described in previous literature
# Fig. 4 Anti-syncytium MC99 + 1A2 of crude extracts and pure compounds from leaves and twigs of M. Pyrrhocarpa. ^bAnti-syncytium (MC99 + 1A2) EC50 = dose of compound that reduced 50% syncytium formation by ΔTat/RevMC99 virus in 1A2 cells.
# HIV-1 RT = target: T1, HIV-1 RT (Human immunodeficiency virus type 1 group M subtype B, UniProt P04585); test: Anti-HIV1-RT assay; type: biochemical; conditions: read-out: Anti-HIV-1 RT (% Inhibition)
# T1 construct: For determination of IC50 in the HIV-1 RT assay
# Procedure: as §2
# [9] = test system: A 549 (Human lung adenocarcinoma); test: Cytotoxicity assay; type: cell-based; conditions: A549
# Source text: (§3) Cells line materials KKU-M213 (human cholangiocarcinoma) cells were kindly provided by Dr. Banchob Sripa from Liver Fluke and Cholangiocarcinoma Research Center, Department of Pathology, Faculty of Medicine, Khon Kean University. MMNK1 (human cholangiocyte) cells were obtained from the Japanese Collection of Research Bioresources Cell Bank (JCRB, Osaka, Japan). FaDu (human hypopharyngeal carcinoma), HT29 (human colorectal adenocarcinoma), MDA-MB-231 (human mammary gland/breast adenocarcinoma), SH-SY5Y (human neuroblastoma), A549 (human lung carcinoma), and HepG2 (human hepatocellular carcinoma) cell lines were obtained from the American Type Culture Collection (ATCC, Manassas, VA, USA).
# (§4) Cytotoxicity assays of the crude extracts and isolated compounds were evaluated according to the standard methods described in previous literature.
# [10] = test system: Hep G2 (Human hepatocellular carcinoma); test: Cytotoxicity assay; type: cell-based; conditions: listed as 6aS, 12aS, 12S-elliptinol (1)
# Source text: as §3, §4
compound,measurement,setting,value
"O=C(N[C@H](CO)[C@H](O)c1ccc([N+](=O)[O-])cc1)C(Cl)Cl [Chloramphenicol, reference compound]",MBC,[1],125 µg/mL
same,MIC,[1],< 30 µg/mL
same,MBC,[2],125 µg/mL
same,MIC,[2],< 30 µg/mL
same,MBC,P. mirabilis DMST 8212,31.2 µg/mL
same,MIC,P. mirabilis DMST 8212,< 30 µg/mL
same,MIC,[3]; read-out: Concentration of MIC,< 30 µg/mL
same,MBC,[4],125 µg/mL
same,MIC,[4],< 35 µg/mL
same,MBC,[5],125 µg/mL
same,MIC,[5],< 30 µg/mL
same,MBC,S. flexneri DMST 4423,125 µg/mL
same,MIC,S. flexneri DMST 4423,< 30 µg/mL
same,MIC,[6]; read-out: Concentration of MIC,< 30 µg/mL
same,MBC,[7],125 µg/mL
same,MIC,[7],< 30 µg/mL
"COc1cc2c(cc1OC)[C@H]1[C@H](O)c3ccc4occc4c3O[C@@H]1CO2 [Compound 1, 6aS, 12aS, 12S-elliptinol]",EC50,[8],4.48 µM
same,inhibition at 200 µg/mL,HIV-1 RT,0.03%
same,cytotoxicity ED50,[9],2.27 µg/mL
same,cytotoxicity ED50,[10],3.97 µg/mL
same,MBC,[1],> 3000 µg/mL
same,MIC,[1],3000 µg/mL
same,MBC,[2],> 3000 µg/mL
same,MIC,[2],3000 µg/mL
same,MBC,P. mirabilis DMST 8212,> 3000 µg/mL
same,MIC,P. mirabilis DMST 8212,3000 µg/mL
same,MBC,[3],> 3000 µg/mL
same,MBC,[4],> 3000 µg/mL
same,MIC,[4],3000 µg/mL
same,MBC,[5],> 3000 µg/mL
same,MIC,[5],3000 µg/mL
same,MBC,S. flexneri DMST 4423,> 3000 µg/mL
same,MIC,S. flexneri DMST 4423,3000 µg/mL
same,MBC,[6],> 3000 µg/mL
same,MBC,[7],> 3000 µg/mL
same,MIC,[7],3000 µg/mL
"COc1ccc2c(c1)O[C@@H]1COc3cc(OC)c(OC)cc3[C@H]1[C@@H]2O [Compound 2, 6aS, 12aS, 12S-munduserol]",EC50,[8],4.99 µM
same,inhibition at 200 µg/mL,HIV-1 RT,8.98%
same,melting point,,240 to 241 °C
same,MBC,[1],> 3000 µg/mL
same,MIC,[1],3000 µg/mL
same,MBC,[2],> 3000 µg/mL
same,MIC,[2],3000 µg/mL
same,MBC,P. mirabilis DMST 8212,> 3000 µg/mL
same,MIC,P. mirabilis DMST 8212,3000 µg/mL
same,MBC,[3],> 3000 µg/mL
same,MBC,[4],> 3000 µg/mL
same,MIC,[4],3000 µg/mL
same,MBC,[5],> 3000 µg/mL
same,MIC,[5],3000 µg/mL
same,MBC,S. flexneri DMST 4423,> 3000 µg/mL
same,MIC,S. flexneri DMST 4423,3000 µg/mL
same,MBC,[6],> 3000 µg/mL
same,MBC,[7],> 3000 µg/mL
same,MIC,[7],3000 µg/mL
"COc1ccc2c(=O)c3c(oc2c1)COc1cc(OC)c(OC)cc1-3 [Compound 3, dehydromunduserone]",EC50,[8],91 µM
same,inhibition at 200 µg/mL,HIV-1 RT,0%
same,melting point,,202 to 204 °C
same,MBC,[1],> 3000 µg/mL
same,MIC,[1],3000 µg/mL
same,MBC,[2],> 3000 µg/mL
same,MIC,[2],3000 µg/mL
same,MBC,P. mirabilis DMST 8212,> 3000 µg/mL
same,MIC,P. mirabilis DMST 8212,3000 µg/mL
same,MBC,[3],> 3000 µg/mL
same,MBC,[4],> 3000 µg/mL
same,MIC,[4],3000 µg/mL
same,MBC,[5],> 3000 µg/mL
same,MIC,[5],3000 µg/mL
same,MBC,S. flexneri DMST 4423,> 3000 µg/mL
same,MIC,S. flexneri DMST 4423,3000 µg/mL
same,MBC,[6],> 3000 µg/mL
same,MBC,[7],> 3000 µg/mL
same,MIC,[7],3000 µg/mL
